Columns and labels:
[1] = target: T1, human DGAT1 (Homo sapiens, UniProt O75907); assay: Inhibition of DGAT1 activity, FlashPlate assay with DGAT1 membrane preparations and substrate micelles; type: biochemical; conditions: pIC50 = -logIC50, IC50 values expressed in M
T1 construct: FLAG (N); made in house; host or cells: SF9 insect cells (pFastBac baculovirus); total cell membranes
T1 sequence (O75907 1-488): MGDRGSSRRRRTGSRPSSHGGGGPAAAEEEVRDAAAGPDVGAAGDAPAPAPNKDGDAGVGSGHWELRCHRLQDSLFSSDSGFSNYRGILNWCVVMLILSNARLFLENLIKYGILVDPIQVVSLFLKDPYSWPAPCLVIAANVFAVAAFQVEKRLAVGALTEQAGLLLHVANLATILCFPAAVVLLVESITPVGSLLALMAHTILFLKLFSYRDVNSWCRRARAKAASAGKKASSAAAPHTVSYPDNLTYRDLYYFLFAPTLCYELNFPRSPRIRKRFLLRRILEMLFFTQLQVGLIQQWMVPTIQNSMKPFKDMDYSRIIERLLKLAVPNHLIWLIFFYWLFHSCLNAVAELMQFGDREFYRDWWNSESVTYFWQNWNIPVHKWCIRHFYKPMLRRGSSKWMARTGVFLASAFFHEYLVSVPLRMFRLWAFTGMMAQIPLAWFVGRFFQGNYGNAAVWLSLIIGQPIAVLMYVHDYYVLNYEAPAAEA
How it was run: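 FLAG-tagged human DGAT1 membranes (expressed in Sf9 cells) were incubated 120 min at 37° C. in 50 mM Tris-HCl pH 7.4 with 150 mM MgCl2, 1 mM EDTA, 0.2% BSA, 50 μM DAG micelles (PC/PS) and 8.4 μM [^3H]-oleoylCoA. The reaction was stopped with N-ethylmaleimide and read as FlashPlate radioluminescence. Responses were normalized to enzyme/no-enzyme controls to fit dose-response curves.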

melting point [°C] | IC50 [1] [nM] | SMILES
242.27 | 661 | O=C(NCc1cccnc1)c1ccc(N2CCN(C(=O)Cc3c(Cl)cccc3Cl)CC2)cc1 [Compound 257]
191.86 | 10 | CC(c1cc(Cl)c(NC(=O)N2CCN(c3ccc(NC(=O)CCCc4ccccc4)cc3)CC2)c(Cl)c1)N(C)C (stereo not shown) [Compound 288]
238.7 | 12 | O=C(CCCc1ccccc1)Nc1ccc(N2CCN(C(=S)Nc3c(Cl)cccc3Cl)CC2)cc1 [Compound 189]
212.29 | 9.55 | COc1cc(CNC(=O)c2ccc(N3CCN(C(=O)Cc4c(Cl)cccc4Cl)CC3)cc2)cc(OC)c1 [Compound 225]
244 to 245 | 10.2 | O=C(CCNc1ccccc1Cl)Nc1ccc(N2CCN(C(=O)Nc3c(Cl)cccc3Cl)CC2)cc1 [Compound 289]
260 to 261 | 229 | O=C(CCc1cccnc1)Nc1ccc(N2CCN(C(=O)Nc3c(Cl)cccc3Cl)CC2)cc1 [Compound 198]
163 to 165 | 75.9 | Cc1ccc(CNCC(=O)Nc2ccc(N3CCN(C(=O)Nc4c(Cl)cccc4Cl)CC3)cc2)c(C)c1 [Compound 181]
223.77 | 3980 | O=C(NCC1CCOCC1)c1ccc(N2CCN(C(=O)Nc3c(Cl)cc(CN4CCCC4)cc3Cl)CC2)cc1 [Compound 264]
212 to 213 | 43.7 | Cc1ccc(CNCC(=O)Nc2ccc(N3CCN(C(=O)Nc4c(Cl)cc(O)cc4Cl)CC3)cc2)c(C)c1 [Compound 311]
161.47 | 6170 | CN(Cc1ccccc1)C(=O)c1ccc(N2CCN(C(=O)Nc3c(Cl)cc(CN4CCCC4)cc3Cl)CC2)cc1 [Compound 266]
253.39 | 24.5 | COc1ccc(CC(=O)Nc2ccc(N3CCN(C(=O)Nc4c(Cl)cc(C(=O)N5CCN(C)CC5)cc4Cl)CC3)cc2)cc1 [Compound 305]
217.37 | 60.3 | O=C(NCc1ccc(-c2ccccn2)cc1)c1ccc(N2CCN(C(=O)Nc3c(Cl)cc(CN4CCCC4)cc3Cl)CC2)cc1 [Compound 236]

The next lines start with the molecule.

SMILES | melting point [°C] | IC50 [1] [nM]
O=C(CC1CCCCC1)Nc1ccc(N2CCN(C(=O)Nc3c(Cl)cccc3Cl)CC2)cc1 [Compound 1] | 285.3 | 4.47
Cc1cc(C)cc(N2CCN(CC(=O)Nc3ccc(N4CCN(C(=O)Nc5c(Cl)cccc5Cl)CC4)cc3)CC2)c1 [Compound 41] | 186.1 | 77.6
CC(C)NC(=O)N(C)CC(=O)Nc1ccc(N2CCN(C(=O)Nc3c(Cl)cccc3Cl)CC2)cc1 [Compound 14] | 217 to 219 | 316
O=C(CCCc1ccccc1)Nc1ccc(N2CCN(C(=O)Nc3ccc(F)cc3F)CC2)cc1 [Compound 73] | 141.2 | 457
O=C(CCOc1ccccc1)Nc1ccc(N2CCN(C(=O)Nc3c(Cl)cccc3Cl)CC2)cc1 [Compound 3] | 268.2 | 7.59
CCCCCCC(=O)Nc1ccc(N2CCN(C(=O)Nc3c(Cl)cccc3Cl)CC2)cc1 [Compound 8] | 245.1 | 8.91
CC(C)(C)CC(C)(C)NC(=O)N1CCN(c2ccc(NC(=O)CCCc3ccccc3)cc2)CC1 [Compound 85] | 202.3 | 1950
CSc1ccccc1NC(=O)N1CCN(c2ccc(NC(=O)CCCc3ccccc3)cc2)CC1 [Compound 79] | 127.1 | 1450
Cc1cc(C)c(NC(=O)N2CCN(c3ccc(NC(=O)CCCc4ccccc4)cc3)CC2)c(Cl)c1 [Compound 64] | 210.6 | 7.08
COc1ccc(CN(CCC(=O)Nc2ccc(N3CCN(C(=O)Nc4c(Cl)cccc4Cl)CC3)cc2)S(=O)(=O)c2ccccc2[N+](=O)[O-])cc1 [Compound 173] | 197 to 199 | 34.7
CC1CN(CC(=O)Nc2ccc(N3CCN(C(=O)Nc4c(Cl)cccc4Cl)CC3)cc2)CC(C)O1 (stereo not shown) [Compound 37] | 237.1 | 129

From US8981094B2, “Piperidine/piperazine derivatives” (Janssen Pharmaceutica N.V., priority 2007, dated 2015)
